Laboratory results taken from US9187465B2, “Oxazole tyrosine kinase inhibitors” (Sareum Limited, priority 2007, dated 2015).

Legend:
[1] = test system: SW620, HCT-116, Colo205, A549, Calu-6 or HL-60 tumour xenografts; conditions: cited from earlier work
[2] = test system: A549 human lung carcinoma cells; experiment: Anti-proliferative activity, Alamar Blue assay, A549; type: cell-based; conditions: A549, 72 h, read-out: cell growth IC50
Description: (§1) The anti-proliferative activities of compounds of the invention are determined by measuring the ability of the compounds to inhibition of cell growth in a number of cell lines. Inhibition of cell growth is measured using the Alamar Blue assay (Nociari et al., Journal of Immunological Methods (1998) 213, 157-167). The method is based on the ability of viable cells to reduce resazurin to its fluorescent product resorufin. For each proliferation assay cells are plated onto 96 well plates and allowed to recover for 16 hours prior to the addition of inhibitor compounds for a further 72 hours. At the end of the incubation period 10% (v/v) Alamar Blue is added and incubated for a further 6 hours prior to determination of fluorescent product at Excitation 535 nm and Emission 590 nm. In the case of the non-proliferating cell assay cells are maintained at confluence for 96 hour prior to the addition of inhibitor compounds for a further 72 hours. The number of viable cells is determined by Alamar Blue assay as before. All cell lines are obtained from ECACC (European Collection of cell Cultures).

human Aurora A = molecular target: T1, human Aurora A (Homo sapiens, UniProt O14965); experiment: Aurora A kinase assay (DELFIA enzyme inhibition); type: biochemical; conditions: read-out: Aurora A IC50
T1 construct: Histidine tag (N); host or cells: Sf9 insect cells (baculovirus)
T1 sequence (O14965 1-403): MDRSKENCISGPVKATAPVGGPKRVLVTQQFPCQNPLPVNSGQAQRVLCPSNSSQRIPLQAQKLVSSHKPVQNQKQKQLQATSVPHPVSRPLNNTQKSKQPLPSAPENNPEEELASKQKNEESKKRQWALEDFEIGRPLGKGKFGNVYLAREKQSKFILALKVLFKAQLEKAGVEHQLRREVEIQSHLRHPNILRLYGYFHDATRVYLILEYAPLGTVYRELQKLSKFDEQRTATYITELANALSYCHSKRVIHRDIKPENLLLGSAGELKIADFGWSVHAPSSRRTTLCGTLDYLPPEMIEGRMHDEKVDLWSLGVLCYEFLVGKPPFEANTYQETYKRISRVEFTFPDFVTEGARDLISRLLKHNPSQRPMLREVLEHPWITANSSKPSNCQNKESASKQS
Procedure, shortened: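 DELFIA read-out (time-resolved Eu fluorescence, 620 nm emission) after Neutravidin capture of biotinylated peptide substrate and antibody detection. Reaction: Ni-agarose-purified Aurora A, 30 min at room temperature, stopped with 100 mM EDTA.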

HCT116 cells = experiment: Anti-proliferative activity, Alamar Blue assay, HCT116; type: cell-based; conditions: Homo sapiens, HCT-116, 72 hours, read-out: cell proliferation IC50
Description: as §1

human FLT3 = molecular target: T2, human FLT3 (Homo sapiens, UniProt P36888); experiment: FLT3 kinase assay (DELFIA enzyme inhibition); type: biochemical
T2 construct: a construct expressing the human FLT3 (564-993) with an amino terminal GST tag; host or cells: Sf9 insect cells (baculovirus)
T2 sequence (P36888 564-993): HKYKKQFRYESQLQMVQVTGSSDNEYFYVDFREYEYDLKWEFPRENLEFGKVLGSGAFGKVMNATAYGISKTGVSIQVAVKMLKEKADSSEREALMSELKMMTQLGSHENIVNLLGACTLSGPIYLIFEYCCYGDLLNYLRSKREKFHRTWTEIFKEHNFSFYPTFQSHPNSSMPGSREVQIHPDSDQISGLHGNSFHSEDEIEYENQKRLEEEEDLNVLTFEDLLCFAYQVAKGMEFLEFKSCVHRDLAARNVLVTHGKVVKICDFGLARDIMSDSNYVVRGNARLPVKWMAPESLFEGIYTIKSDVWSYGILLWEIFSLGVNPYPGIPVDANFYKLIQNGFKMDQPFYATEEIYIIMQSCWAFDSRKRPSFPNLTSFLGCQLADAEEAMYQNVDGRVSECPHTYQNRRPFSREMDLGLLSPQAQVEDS
Procedure, shortened: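 GST-tagged human FLT3 (564-993), expressed in sf9 cells, phosphorylated a biotinylated Gastrin Precursor (Tyr 87)-derived peptide for 30 min at room temperature before EDTA stop. The captured peptide was detected by Eu-labelled anti-phosphotyrosine DELFIA time-resolved fluorescence. IC50 was derived from % inhibition curves.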

human FLT4 = molecular target: T3, human FLT4 (Homo sapiens, UniProt P35916); experiment: FLT4 kinase assay (DELFIA enzyme inhibition); type: biochemical; conditions: read-out: FLT4 IC50
T3 construct: a construct expressing the human FLT4 (789-1207) with an amino terminal GST tag; host or cells: Sf9 insect cells (baculovirus)
Procedure, shortened: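 Read-out is DELFIA: biotinylated MET Tyr1253-derived peptide captured on Neutravidin, phosphotyrosine detected by Eu-antibody time-resolved fluorescence. Enzyme is Sf9-expressed GST-FLT4 (789-1207), reacting 30 min at room temperature before EDTA stop. IC50 derived from plotted % inhibition.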

[3] = test system: treatment-refractory primary Acute Myelogenous Leukemia (AML) cells; conditions: treatment-refractory cells from patients; cited from earlier work

T3 sequence (P35916 789-1207): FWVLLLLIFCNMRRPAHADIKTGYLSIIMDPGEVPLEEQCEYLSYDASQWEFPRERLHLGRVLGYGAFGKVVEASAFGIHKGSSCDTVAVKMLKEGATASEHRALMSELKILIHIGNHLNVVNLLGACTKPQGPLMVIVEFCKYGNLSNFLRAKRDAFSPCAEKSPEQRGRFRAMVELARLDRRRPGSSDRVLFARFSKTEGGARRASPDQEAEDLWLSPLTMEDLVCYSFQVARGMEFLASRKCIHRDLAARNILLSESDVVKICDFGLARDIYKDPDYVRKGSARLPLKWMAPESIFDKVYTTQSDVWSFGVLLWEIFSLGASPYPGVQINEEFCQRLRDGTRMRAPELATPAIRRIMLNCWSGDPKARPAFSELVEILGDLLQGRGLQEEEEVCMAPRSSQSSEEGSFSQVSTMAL

IC50 [2] | IC50 (human Aurora A) | IC50 (HCT116 cells) | IC50 (human FLT3) | IC50 (human FLT4) | Structure (SMILES) | complete tumour regression (animals) ([1]; HL-60 xenograft) | inhibition of tumour growth ([1]; dosed over 48 h via sub-cutaneous mini-pump infusion, all xenograft models) | killing of primary AML cells [3]
< 10 µM | < 10 µM | < 10 µM | < 10 µM | < 10 µM | NC(=O)c1nc(-c2c(F)cccc2F)oc1Nc1ccc(N2CCNCC2)cc1 [Example Q-11, 2-(2,6-difluorophenyl)-5-(4-(piperazin-1-yl)phenylamino)oxazole-4-carboxamide] |  |  | 
< 10 µM | < 10 µM | < 10 µM | < 10 µM | < 10 µM | NC(=O)c1nc(-c2c(F)cccc2Cl)oc1Nc1ccc(N2CCNCC2)cc1 [Example Q-36, 2-(2-chloro-6-fluorophenyl)-5-(4-(piperazin-1-yl)phenylamino)oxazole-4-carboxamide] |  |  | 
< 10 µM | < 10 µM | < 10 µM | < 10 µM | < 10 µM | CN1CCN(C(=O)c2ccc(Nc3oc(-c4c(F)cccc4Cl)nc3C(N)=O)cc2)CC1 [Example Q-57] |  |  | 
< 10 µM | < 10 µM | < 10 µM | < 10 µM | < 10 µM | NC(=O)c1nc(Nc2c(F)cccc2F)oc1-c1ccc(N2CCNCC2)cc1 [Example R-13, 2-(2,6-difluorophenylamino)-5-(4-(piperazin-1-yl)phenyl)oxazole-4-carboxamide] |  |  | 

The remaining lines, values behind:

Structure (SMILES) | IC50 [2] | IC50 (human Aurora A) | IC50 (HCT116 cells) | IC50 (human FLT3) | IC50 (human FLT4) | complete tumour regression (animals) ([1]; HL-60 xenograft) | inhibition of tumour growth ([1]; dosed over 48 h via sub-cutaneous mini-pump infusion, all xenograft models) | killing of primary AML cells [3]
CCN(CCCOc1ccc2c(Nc3cc(CC(=O)Nc4cccc(F)c4)n[nH]3)ncnc2c1)CCOP(=O)(O)O [AZD1152] |  |  |  |  |  | 8 of 11 | 55% to 100 | 
CN1CCN(C(=O)c2ccc(Nc3oc(-c4c(F)cccc4F)nc3C(N)=O)cc2)CC1 [Example Q-14, 2-(2,6-difluorophenyl)-5-(4-(4-methylpiperazine-1-carbonyl)phenylamino) oxazole-4-carboxamide] | < 10 µM | < 10 µM | < 10 µM | < 10 µM | < 10 µM |  |  | 
Cc1cc(Nc2cc(N3CCN(C)CC3)nc(Sc3ccc(NC(=O)C4CC4)cc3)n2)n[nH]1 [VX-680] |  |  |  |  |  |  |  | potently killed
